Patent US20110039825A1, “LIGANDS OF ALPHA-ADRENOCEPTORS, DOPAMINE, HISTAMINE, IMIDAZOLINE AND SEROTONIN RECEPTORS AND THEIR USE” (Alla Chem, LLC, priority 2007, published 2011)
Like-named read-outs stand apart in the source and are kept apart here.

Experiments:
human α2A receptor = molecular target: T1, human α2A receptor (Homo sapiens, UniProt P08913); experiment: radioligand binding to adrenergic receptor α2A ([3H] MK-912)
T1 construct: expressed in transfected cells; host or cells: Sf9
T1 sequence (P08913 1-465): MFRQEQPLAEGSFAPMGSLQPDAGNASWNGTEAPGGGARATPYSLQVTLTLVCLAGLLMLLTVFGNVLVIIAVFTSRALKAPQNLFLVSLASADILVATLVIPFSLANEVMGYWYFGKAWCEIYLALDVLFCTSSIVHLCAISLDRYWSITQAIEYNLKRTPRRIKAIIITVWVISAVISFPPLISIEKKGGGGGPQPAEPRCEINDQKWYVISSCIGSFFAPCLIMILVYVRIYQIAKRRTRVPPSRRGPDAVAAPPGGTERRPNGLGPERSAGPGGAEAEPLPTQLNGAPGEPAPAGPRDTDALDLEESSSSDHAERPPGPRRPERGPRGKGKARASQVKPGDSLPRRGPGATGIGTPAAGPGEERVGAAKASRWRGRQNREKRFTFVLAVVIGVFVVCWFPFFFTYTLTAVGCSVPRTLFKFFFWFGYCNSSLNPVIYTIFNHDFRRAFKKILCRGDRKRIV
Text: J Pharmacol ExpTher. […] Yohimbine is used as positive control.

human D1 receptor = molecular target: T2, human D1 receptor (Homo sapiens, UniProt P21728); experiment: radioligand binding to dopamine receptor D1 ([3H] SCH-23390); conditions: for Dopamine receptor D1, % inhibition: 10 μM ligand
T2 construct: expressed in transfected cells; host or cells: CHO
T2 sequence (P21728 whole entry): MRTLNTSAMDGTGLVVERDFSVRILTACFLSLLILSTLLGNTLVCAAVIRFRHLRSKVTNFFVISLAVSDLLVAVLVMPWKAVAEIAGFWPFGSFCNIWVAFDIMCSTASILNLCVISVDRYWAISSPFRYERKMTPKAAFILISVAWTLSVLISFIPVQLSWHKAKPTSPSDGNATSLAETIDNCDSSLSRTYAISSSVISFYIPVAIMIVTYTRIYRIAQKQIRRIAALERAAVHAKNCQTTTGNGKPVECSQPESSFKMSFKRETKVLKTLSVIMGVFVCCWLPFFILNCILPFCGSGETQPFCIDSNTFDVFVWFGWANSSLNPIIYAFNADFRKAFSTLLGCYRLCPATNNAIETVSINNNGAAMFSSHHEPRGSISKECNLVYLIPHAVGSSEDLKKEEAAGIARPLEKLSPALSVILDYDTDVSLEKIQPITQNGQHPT
Text: For this purpose sDNA of human D1 receptor is expressed in CHO cells, as it was described in [Dearry A, Gingrich J A, Falardeau P, Fremeau R T Jr, Bates M D and Caron M G. Molecular cloning and expression of the gene for a human D1 dopamine receptor. Nature. […] Nature.

human D4.2 receptor = molecular target: T3, human D4.2 receptor (Homo sapiens, UniProt P21917, DEL265-296); experiment: radioligand binding to dopamine receptor D4.2 ([3H] Spiperone); conditions: 10 μM ligand
T3 sequence (P21917 with tags, fused parts or gaps DEL265-296): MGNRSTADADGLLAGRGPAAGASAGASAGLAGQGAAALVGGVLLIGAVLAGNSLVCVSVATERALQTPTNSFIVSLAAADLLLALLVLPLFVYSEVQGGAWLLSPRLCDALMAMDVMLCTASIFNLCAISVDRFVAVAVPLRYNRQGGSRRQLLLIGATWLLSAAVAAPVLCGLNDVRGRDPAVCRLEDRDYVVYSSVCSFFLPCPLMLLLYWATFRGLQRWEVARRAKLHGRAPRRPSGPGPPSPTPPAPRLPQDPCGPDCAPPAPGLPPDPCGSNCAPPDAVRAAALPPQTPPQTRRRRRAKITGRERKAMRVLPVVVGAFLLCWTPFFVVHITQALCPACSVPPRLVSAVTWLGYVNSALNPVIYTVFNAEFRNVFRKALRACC
Description: Screening of the disclosed compounds for potential ability to interact with dopamine receptor D4.2 is carried out by method of radioligand binding. […] From the cells transfected in this way membrane species are prepared by homogenization of these cells in glass homogenizer with the subsequent separation of plasmatic membranes from cell nuclei, mitochondrias and cell wreckages by differential centrifugation. […] After incubation samples are filtered in vacuo on glass-microfiber filters G/F (Millipor, USA), filters are washed three times with cold solution of medium and radioactivity is measured by scintillation counter MicroBeta 340 (Perkin Elmer, USA). Nonspecific binding which makes up 10% of the overall binding is determined by incubation of membrane species with radioligand in the presence of 10 μM of Haloperidol.
Spiperone is used as positive control. Tested compounds' binding to the receptor is determined by their ability to displace radioligand and expressed in percent of displacement (% I). Values of % I are calculated according to the following equation:
wherein: TA—is overall radioactivity in the presence of radioligand only, CA—is radioactivity in the presence of radioligand and tested compound and NA—is radioactivity in the presence of radioligand and Haloperidol (10 μM).

human 5-HT7 receptor = molecular target: T4, human 5-HT7 receptor (Homo sapiens, UniProt P34969); experiment: radioligand binding to serotonin receptor 5-HT7 ([3H] Lysergic acid diethylamide)
T4 construct: expressed in transfected cells; host or cells: CHO
T4 sequence (P34969 whole entry): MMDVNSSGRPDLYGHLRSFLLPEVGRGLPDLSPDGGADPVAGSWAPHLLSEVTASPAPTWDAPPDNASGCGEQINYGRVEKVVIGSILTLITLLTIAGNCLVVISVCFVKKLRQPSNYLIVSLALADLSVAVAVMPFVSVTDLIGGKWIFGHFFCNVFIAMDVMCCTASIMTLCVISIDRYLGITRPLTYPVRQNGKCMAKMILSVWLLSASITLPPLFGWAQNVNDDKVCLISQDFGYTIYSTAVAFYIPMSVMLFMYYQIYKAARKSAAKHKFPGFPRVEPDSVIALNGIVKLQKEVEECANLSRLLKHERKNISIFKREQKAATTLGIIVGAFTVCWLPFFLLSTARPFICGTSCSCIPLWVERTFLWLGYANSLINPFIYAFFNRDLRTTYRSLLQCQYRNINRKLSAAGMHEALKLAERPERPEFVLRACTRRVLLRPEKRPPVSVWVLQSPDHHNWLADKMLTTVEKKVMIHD
Text: For this purpose sDNA of human 5-HT7 receptor is expressed in CHO cells as it was described in [Shen Y, Monsma F J Jr, Metcalf M A, Jose P A, Hamblin M W, and Sibley DR. […] J. Biol. Chem. 1993, 268, 18200-18204]. […] J. Pharmacol. Exp. Ther. 1994, 268:1403-1410]. […] Methiothepin is used as positive control.

recombinant human 5-HT1A = molecular target: T5, recombinant human 5-HT1A (Homo sapiens, UniProt P08908); experiment: radioligand binding to serotonin receptor 5-HT1A ([3H] 8-OH-DPAT)
T5 construct: expressed in transfected cells; host or cells: CHO
T5 sequence (P08908 1-422): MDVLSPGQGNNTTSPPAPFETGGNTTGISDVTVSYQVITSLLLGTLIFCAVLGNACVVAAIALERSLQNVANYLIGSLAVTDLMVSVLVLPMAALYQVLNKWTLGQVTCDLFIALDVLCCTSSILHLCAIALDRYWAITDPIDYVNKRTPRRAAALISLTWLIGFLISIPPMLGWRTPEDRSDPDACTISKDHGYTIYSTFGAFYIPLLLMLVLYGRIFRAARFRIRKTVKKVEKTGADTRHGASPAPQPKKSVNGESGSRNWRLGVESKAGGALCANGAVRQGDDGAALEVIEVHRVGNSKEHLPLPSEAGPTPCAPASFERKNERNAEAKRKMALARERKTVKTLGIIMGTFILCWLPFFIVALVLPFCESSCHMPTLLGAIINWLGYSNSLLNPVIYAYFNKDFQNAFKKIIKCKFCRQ
Text: J Pharmacol Exp Ther. 306(1): 301-309, 2003]. […] Metergoline is used as positive control.

human H1 receptor = molecular target: T6, human H1 receptor (Homo sapiens, UniProt P35367); experiment: radioligand binding to histamine receptor H1 ([3H] Pyrilamine); conditions: for Histamine receptor H1, % inhibition: 10 μM ligand
T6 construct: expressed in transfected cells; host or cells: CHO-K1
T6 sequence (P35367 whole entry): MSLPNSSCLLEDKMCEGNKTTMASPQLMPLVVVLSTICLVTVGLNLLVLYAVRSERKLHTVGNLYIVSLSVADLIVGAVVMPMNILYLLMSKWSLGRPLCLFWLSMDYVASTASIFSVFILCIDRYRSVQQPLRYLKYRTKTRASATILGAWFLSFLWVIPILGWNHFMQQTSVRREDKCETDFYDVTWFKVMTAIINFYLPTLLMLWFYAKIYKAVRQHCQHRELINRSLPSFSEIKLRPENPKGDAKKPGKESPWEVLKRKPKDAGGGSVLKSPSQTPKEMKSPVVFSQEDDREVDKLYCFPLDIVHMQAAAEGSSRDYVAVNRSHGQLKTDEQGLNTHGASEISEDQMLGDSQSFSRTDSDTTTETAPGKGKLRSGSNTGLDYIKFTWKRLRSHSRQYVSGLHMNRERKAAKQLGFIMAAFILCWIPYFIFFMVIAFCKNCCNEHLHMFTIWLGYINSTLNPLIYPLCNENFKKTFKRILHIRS
Text: Biochem Biophys Res Comm. 197(3): 1601-1608, 1993]. […] Biochem Biophys Res Comm. 197(3): 1601-1608, 1993].
Pyrilamine is used as positive control.

human H2 receptor = molecular target: T7, human H2 receptor (Homo sapiens, UniProt P25021); experiment: radioligand binding to histamine receptor H2 ([125I] Aminopotentidine); conditions: 10 μM ligand
T7 construct: expressed in transfected cells; host or cells: CHO-K1
T7 sequence (P25021 whole entry): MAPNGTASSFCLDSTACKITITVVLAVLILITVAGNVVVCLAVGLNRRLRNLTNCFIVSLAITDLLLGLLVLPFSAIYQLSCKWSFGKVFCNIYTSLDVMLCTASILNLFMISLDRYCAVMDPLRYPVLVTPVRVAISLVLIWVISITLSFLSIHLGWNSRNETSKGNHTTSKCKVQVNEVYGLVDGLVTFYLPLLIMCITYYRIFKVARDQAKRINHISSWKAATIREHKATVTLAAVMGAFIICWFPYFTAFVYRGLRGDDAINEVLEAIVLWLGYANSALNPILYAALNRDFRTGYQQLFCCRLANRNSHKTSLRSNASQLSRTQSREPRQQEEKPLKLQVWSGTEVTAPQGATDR
Text: Proc Natl Acad Sci USA. 87(5): 1658-1662, 1990]. […] Proc Natl Acad Sci USA. 87(5): 1658-1662, 1990]. […] Tiotidine is used as positive control.

[1] = molecular target: T8, recombinant human 5-HT2B receptor (Homo sapiens, UniProt P41595); experiment: radioligand binding to serotonin receptor 5-HT2B ([3H] Lysergic acid diethylamide)
T8 construct: expressed in transfected cells; host or cells: CHO-K1
T8 sequence (P41595 whole entry): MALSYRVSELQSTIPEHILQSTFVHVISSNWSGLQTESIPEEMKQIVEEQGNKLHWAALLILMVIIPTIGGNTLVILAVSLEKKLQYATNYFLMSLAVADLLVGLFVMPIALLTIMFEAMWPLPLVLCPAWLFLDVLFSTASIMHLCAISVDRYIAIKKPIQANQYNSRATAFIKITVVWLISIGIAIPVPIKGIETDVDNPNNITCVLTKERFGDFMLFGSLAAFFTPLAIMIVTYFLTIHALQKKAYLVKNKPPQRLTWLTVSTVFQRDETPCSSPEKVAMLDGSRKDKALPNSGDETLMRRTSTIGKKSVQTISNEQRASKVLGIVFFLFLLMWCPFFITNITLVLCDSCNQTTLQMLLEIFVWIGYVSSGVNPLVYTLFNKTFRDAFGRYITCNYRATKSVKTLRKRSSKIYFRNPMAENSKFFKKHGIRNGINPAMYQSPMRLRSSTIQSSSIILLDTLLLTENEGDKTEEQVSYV

[2] = molecular target: T9, recombinant human 5-HT6 receptor (Homo sapiens, UniProt P50406); experiment: radioligand binding to serotonin receptor 5-HT6 ([3H] Lysergic acid diethylamide); conditions: for inhibition at 1 µM: read-out: 5-HT6 % inhibition
T9 construct: expressed in transfected cells; host or cells: HeLa
T9 sequence (P50406 whole entry): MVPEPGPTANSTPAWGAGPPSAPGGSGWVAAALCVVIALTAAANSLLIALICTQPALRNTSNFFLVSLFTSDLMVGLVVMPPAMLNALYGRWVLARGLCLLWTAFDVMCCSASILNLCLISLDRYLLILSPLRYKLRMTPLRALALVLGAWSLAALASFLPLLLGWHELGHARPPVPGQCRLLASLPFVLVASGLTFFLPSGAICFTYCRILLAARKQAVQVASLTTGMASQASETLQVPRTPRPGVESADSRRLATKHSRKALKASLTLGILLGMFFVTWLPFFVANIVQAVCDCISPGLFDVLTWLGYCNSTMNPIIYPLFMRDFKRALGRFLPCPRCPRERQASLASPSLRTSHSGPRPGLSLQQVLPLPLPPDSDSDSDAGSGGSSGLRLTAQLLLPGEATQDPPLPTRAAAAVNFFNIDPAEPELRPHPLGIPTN
Text: Mol. Pharmacol. 43:320-327, 1993]. […] Methiothepin is used as positive control.

Cc1ccc2c(c1)[C@@H]1CN(C)CCC[C@@H]1N2CCc1ccc(C)nc1.Cl.Cl.Cl (relative stereo) [1.6.1(2)•3HCl]
α-Adrenoceptor α2A, % inhibition (human α2A receptor; 10 μM ligand): 82% | Dopamine receptor D1, % inhibition (human D1 receptor): 55% | Dopamine receptor D4.2, % inhibition (human D4.2 receptor): −11% | 5-HT7 % inhibition (human 5-HT7 receptor; 10 μM ligand): 8% | 5-HT1A % inhibition (recombinant human 5-HT1A; 10 μM ligand): −9% | Histamine receptor H1, % inhibition (human H1 receptor): 102% | Histamine receptor H2, % inhibition (human H2 receptor): 66%

Cc1ccc2c(c1)c1c(n2CCc2ccccn2)CCN(C)C1.Cl.Cl [1.1.2(2-3)•2HCl]
nH 5-HT2B [1]: 0.913 | IC50 ([1]; read-out: IC50 5-HT2B): 1020 nM | Ki ([1]; read-out: Ki 5-HT2B): 647 nM | IC50 (human α2A receptor): 128 nM | Ki (human α2A receptor): 47.9 nM | inhibition at 1 µM (human 5-HT7 receptor; ligand concentration 1 μM): 100% | IC50 [2]: 109 nM | Ki [2]: 50.5 nM | nH 5-HT6 [2]: 0.744 | inhibition at 1 µM ([2]; ligand concentration 1 μM): 97% | inhibition at 1 µM (recombinant human 5-HT1A; ligand concentration 1 μM): 53% | Histamine receptor H1, % inhibition (human H1 receptor): 98%

Cc1ccc2c(c1)[C@H]1CN(C)CCC[C@@H]1N2CCc1cccnc1 [1.6.2(10)•3HCl]
α-Adrenoceptor α2A, % inhibition (human α2A receptor; 10 μM ligand): 92% | Dopamine receptor D1, % inhibition (human D1 receptor): 88% | Dopamine receptor D4.2, % inhibition (human D4.2 receptor): 5% | inhibition at 1 µM [2]: 93% | Histamine receptor H1, % inhibition (human H1 receptor): 103% | Histamine receptor H2, % inhibition (human H2 receptor): 69%

CN1CCc2c(c3ccccc3n2Cc2ccccc2)C1 [1.9(1)•½NDSA, bis-(5-benzyl-2-methyl-2,3,4,5-tetrahydro-1H-pyrido[4,3-b]indole) naphtalene-1,5-disulfonate]
nH 5-HT2B [1]: 0.552 | IC50 (human α2A receptor): 123 nM | Ki (human α2A receptor): 46.1 nM | nH α2A (human α2A receptor): 1.13 | α-Adrenoceptor α2A, % inhibition (human α2A receptor; 0.3 μM ligand): 73(0.3 μM) % | nH D1 (human D1 receptor): 1.38 | Dopamine receptor D1, % inhibition (human D1 receptor): 77% | IC50 [2]: 103 nM | Ki [2]: 47.6 nM | nH 5-HT6 [2]: 1.07 | 5-HT6 % inhibition ([2]; 0.3 μM ligand): 78% | IC50 (human H1 receptor): 3.97 nM | Ki (human H1 receptor): 1.9 nM | nH H1 (human H1 receptor): 0.789
